Laboratory results taken from patent US9456995B2, “Methods for inhibition of BNIP3 and prevention and treatment of ischemia reperfusion injury by tetra-O-methyl nordihydroguaiaretic acid” (THE JOHNS HOPKINS UNIVERSITY, priority 2012, dated 2016).

Legend:
HL-1 mouse heart cells [1] = assay: UCN-01-induced cell death in HL-1 cells, Trypan blue exclusion assay; type: cell-based; conditions: M4N around 20 μM; UCN-01 (0.2 μM) for 24 hours; FIG. 4
Protocol: FIG. 4 depicts the effect of M4N on cell death induced by UCN-01 treatment in HL-1 mouse heart cells. The cells were treated with M4N followed with UCN-01 (0.2 μM) treatment for 24 hours. The cell death was measured with Trypan Blue exclusion assay. The asterisk indicates a statistically significant difference by t-test at the error rate of less than 2%. For the Trypan blue exclusion assay, the cells were washed with PBS (−) once and resuspended in PBS (−) again. One part of the resuspended cell solution was mixed with one part of 0.4% Trypan blue solution (Sigma). In about 5 to 15 minutes the numbers of both the cells without staining and the cells with staining were counted. The percentages of the number of the cells with staining to the total cell number (which equals to the number of the cells with staining and that of the cells without staining) were calculated. Effect of M4N on UCN-01-inducing cell death. Next, the effect of M4N on the cell death induced by UCN-01, an anticancer drug, in HL-1 cells (FIG. 4) was examined.

BNIP3 [2] = assay: BNIP3 expression by western blotting in HL-1 cells under hypoxia; type: cell-based, mouse; conditions: M4N at 10-40 μM; hypoxia for 6 hours then normoxia for 18 hours; FIG. 3
Protocol: Cell Culture. HL-1 mouse heart cell line was a kind gift from Dr. Claycomb (LSU Health Science Centers, New Orleans La.) (Proc. Natl. Acad. Sci. U.S.A., 95: 2979-84 (1998)). HL-1 cells were cultured in Claycomb medium (Sigma, Saint Louis, Mo.) supplemented with FBS (10%), Norepinephrine (0.1 mM), L-Glutamine (2 mM), penicillin (100 units/ml) and streptomycin (100 μg/ml). Drugs were dissolved in dimethyl sulfoxide at the final concentrations in the medium less than 0.1%. When the cells were indicated to be cultured under hypoxic conditions, the cells were incubated at the oxygen concentration of 0.5% in the hypoxic chamber (BioSpherix Ltd, Lacona, N.Y.). Western blotting. After cells had been grown in […] flasks and treated with reagents, the cells were washed with PBS (−) three times and suspended in RIPA buffer (150 mM NaCl, 50 mM Tris-HCl (pH 8.0), 0.1% SDS, 1% NP40, and 0.5% deoxycholate) supplemented with protease inhibitor cocktail (Calbiochem, San Diego, Calif.). The sample volumes were adjusted by the total protein amount. Protein assay was performed by Bio-Rad Protein Assay (Bio-Rad Laboratories, Inc. Hercules, Calif.). […] The signals were detected by western blot chemiluminescence reagent plus (New England Nuclear Life Science Products, Boston, Mass.). […]

[3] = tested on: mitochondrial permeability transition pore (mPTP); assay: Mitochondrial permeability transition pore (mPTP) openings by confocal microscopy in HL-1 cells; type: cell-based, mouse; conditions: M4N at 5-20 μM, hypoxia 6 hours then normoxia 8 hours, data not shown
Protocol: Measurement of mitochondrial permeability transition pore (mPTP) openings. The mPTP was measured by Image-iT LIVE Mitochondria Transition Pore Assay Kit (Molecular Probes, Eugene Oreg.). The cells were first washed with Hank's Balanced Salt Solution (HBSS) with sodium bicarbonate, calcium, and magnesium that also included HEPES (10 mM), L-glutamine (2 mM) and succinate (100 μM) to support healthy mitochondrial function (modified HBSS). The cells were then labeled with calcein-AM (1.0 μM) and MitoTracker Red CMSRos dye ([…]) in modified HBSS with […] CoCl2 for 15 minutes. After the medium was changed to the normal HL-1 culture medium, the cells were treated with M4N at various concentrations (0, 5, 10, 20, 40, and 80 μM). The cells were incubated under hypoxia for 6 hours, followed with under normoxia for 8 hours. After the cells were washed with modified HBSS, they were examined by B29/Zeiss LSM 510 META laser confocal microscope (Carl Zeiss, Jena, Germany) for calcein at FITC settings and for MitoTracker at rhodamine settings.

LNCAP cells = assay: Mitochondrial metabolism and membrane potential in LNCaP cells; type: cell-based, human; conditions: data not shown
HL-1 mouse heart cells [4] = assay: Trypan blue exclusion assay of cell death under hypoxia or normoxia in HL-1 cells; type: cell-based; conditions: M4N at 20 μM, FIG. 2
Protocol: Cell Culture. HL-1 mouse heart cell line was a kind gift from Dr. Claycomb (LSU Health Science Centers, New Orleans La.) (Proc. Natl. Acad. Sci. U.S.A., 95: 2979-84 (1998)). HL-1 cells were cultured in Claycomb medium (Sigma, Saint Louis, Mo.) supplemented with FBS (10%), Norepinephrine (0.1 mM), L-Glutamine (2 mM), penicillin (100 units/ml) and streptomycin (100 μg/ml). Drugs were dissolved in dimethyl sulfoxide at the final concentrations in the medium less than 0.1%. When the cells were indicated to be cultured under hypoxic conditions, the cells were incubated at the oxygen concentration of 0.5% in the hypoxic chamber (BioSpherix Ltd, Lacona, N.Y.). For the Trypan blue exclusion assay, the cells were washed with PBS (−) once and resuspended in PBS (−) again. […] In about 5 to 15 minutes the numbers of both the cells without staining and the cells with staining were counted. The percentages of the number of the cells with staining to the total cell number (which equals to the number of the cells with staining and that of the cells without staining) were calculated. […] For the hypoxia treatment the cells were cultured under 0.5% oxygen concentration in a hypoxic chamber for 6 hours and returned the cells back to normoxic condition in a normal culture chamber, and then cell death was measured 18 hours later. […]

BNIP3 [5] = assay: BNIP3 expression in human cancer cells (LNCaP, PC3, MCF-7, HepG2); type: cell-based
HL-1 mouse heart cells [6] = assay: TUNEL assay of cell death induced by hypoxia in HL-1 cells; type: cell-based; conditions: M4N at 5-20 μM; 6 hour hypoxia (0.5% oxygen) followed with 18 hour normoxia; FIG. 1
Protocol: Cell Culture. HL-1 mouse heart cell line was a kind gift from Dr. Claycomb (LSU Health Science Centers, New Orleans La.) (Proc. Natl. Acad. Sci. U.S.A., 95: 2979-84 (1998)). HL-1 cells were cultured in Claycomb medium (Sigma, Saint Louis, Mo.) supplemented with FBS (10%), Norepinephrine (0.1 mM), L-Glutamine (2 mM), penicillin (100 units/ml) and streptomycin (100 μg/ml). Drugs were dissolved in dimethyl sulfoxide at the final concentrations in the medium less than 0.1%. When the cells were indicated to be cultured under hypoxic conditions, the cells were incubated at the oxygen concentration of 0.5% in the hypoxic chamber (BioSpherix Ltd, Lacona, N.Y.). Cell death assay. Terminal deoxynucleotidyl transferase dUTP nick end labeling (TUNEL) assay was conducted by using TUNEL apoptosis detection kits (Upstate, Temecula, Calif.), with some modifications. The cells were cultured in 12-well microwell culture dishes (Corning Inc., Corning, N.Y.). After the treatment, both the cells floating in the tissue culture medium and those attached to the bottoms of wells were collected together into plastic tubes. […] For the hypoxia treatment the cells were cultured under 0.5% oxygen concentration in a hypoxic chamber for 6 hours and returned the cells back to normoxic condition in a normal culture chamber, and then cell death was measured 18 hours later. […]

[7] = numerous clinical trials as an anticancer drug; cited from earlier work

Q: Which “UCN-01-mediated cell death, Trypan blue exclusion assay” value (HL-1 mouse heart cells [1]) does the source give for `COc1ccc(C[C@@H](C)[C@@H](C)Cc2ccc(OC)c(OC)c2)cc1OC` [M4N, tetra-o-methyl nordihydroguaiaretic acid] here?
A: The value was “reduced UCN-01-mediated cell death”.

Q: And the “BNIP3 expression (western blotting)” value (BNIP3 [2])?
A: The value was “suppressed”.

Q: What about the “mPTP openings induced by hypoxia” value [3] of the same compound?
A: The value was “suppressed mPTP openings induced by hypoxia”.

Q: What about the “mitochondrial membrane potential (ΔΨm)” value (LNCAP cells) of the same compound?
A: The value was “induce hyperpolarization of ΔΨm”.

Q: What about the mitochondrial metabolism (LNCAP cells) of the same compound?
A: Its mitochondrial metabolism is “suppress mitochondrial metabolism”.

Q: What about the “cell death induced by hypoxia, Trypan blue exclusion assay” value (HL-1 mouse heart cells [4]; either 6 hour hypoxia with additional 18 hour normoxia or 24 hour hypoxia) of the same compound?
A: The value was “reduced the cell death induced by hypoxia”.

Q: And the “cell death under normoxic condition, Trypan blue exclusion assay” value (HL-1 mouse heart cells [4]; normoxic condition, compared with the control)?
A: Its value is “reduced cell death compared with the control”.

Q: And the “BNIP3 expression at the transcription level” value (BNIP3 [5]; LNCaP human prostate cancer cells, internal data not shown)?
A: The value was “blocks BNIP3 expression”.

Q: What about the “expression of BNIP3 in various cancer cells” value (BNIP3 [5]; LNCaP, PC3, MCF-7, HepG2 cells, previously found) of the same compound?
A: Its value is “reduced the expression of BNIP3”.

Q: And the “TUNEL-positive cell death induced by hypoxia” value (HL-1 mouse heart cells [6])?
A: The value was “reduced the cell death induced by hypoxia”.

Q: What about the “toxicity and safety in clinical trials” value [7] of the same compound?
A: The value was “very nontoxic and safe drug”.
